Measured values as given in patent US20250270513A1, “METHOD FOR PRODUCING CULTURED TISSUE, AND PREPARATION FOR EXTERNAL APPLICATION” (National University Corporation Ehime University, priority 2019, published 2025).

Assays:
[1] = test system: human normal skin keratinocytes on collagen gel containing normal human skin fibroblasts (NHDF); test: Three-dimensional cultured skin on a sugar-containing dermal cell structure (Test Example 1); format: cell-based; conditions: 30 mg/mL sugar added instead of trehalose to collagen gel containing fibroblasts
Procedure: Subsequently, about 1 mL of the gel obtained was poured into a transwell-collagen coated insert (catalog number: 3492, manufactured by Costar; pore size: 3.0 μm, surface area: 4.67 cm^2), which is a cell culture insert, and allowed to stand in an incubator for 5 minutes or more. 5 mL of DMEM containing 10 v/v % FCS and 1 v/v % ABAM (Antibiotics-Antimycotic solution, 100×, manufactured by ThermoFisher Scientific Inc.) in which normal human skin fibroblasts (NHDF, manufactured by Cambrex Corporation) were suspended at a cell density of 5×10^5 cells/mL was added to 29 mL of the gel solution I. About 3.5 mL of a gel solution containing the cells was added to the cell culture insert, and the mixture was allowed to stand in a 37° C. incubator for 30 minutes to gel.
• (2) Next, the collagen gel (layered dermal cell structure) containing NHDF was pre-cultured for 5 days using a DMEM medium containing 50 μg/ml ascorbic acid, 10 v/v % FCS, and 1 v/v % ABAM. Next, human normal skin keratinocytes suspended in MCDB medium were seeded on the collagen gel surface so as to be 1.28×10^5 cells/cm^2, and a medium obtained by mixing equal amounts of MCDB Type-II medium (Growth Medium 2 in JP-B2-3066624) and EGM was added to an external liquid of the cell culture insert and the inside of the insert, followed by culturing at 37° C. for 2 days.
• (3) The medium was replaced with a cornification medium (CM medium), and the cell culture insert was placed such that a porous membrane of the cell culture insert was located at a gas-liquid interface of the cornification medium. In this state, the cells were subjected to gas-liquid interface culture at 37° C. for 7 to 14 days to induce differentiation, thereby obtaining three-dimensional cultured skin. The medium was replaced every two days from the start of the culture.

[2] = test system: EREG, ARG2, CCL2, IL1RN, PGF, SPP1, VEGFA, AREG and DPT mRNA; test: qPCR of genes in monolayer fibroblasts, 24 hours (Test Example 3-3); format: cell-based, human; conditions: group treated with hyaluronic acid oligosaccharides (HA oligo)
Procedure: In the same manner as in Test Example 3-2, NHDF was cultured in 1% FCS and 1% ABAM-containing DMEM medium containing 0, 30, or 100 mg/mL trehalose or hyaluronic acid oligosaccharide 4mer (HA4) (product code 11006, manufactured by Cosmo Bio Co., Ltd.) for 24 hours, and RNA was recovered from the cells. Also, as a control, RNA was recovered from fibroblasts before treatment (0 h in FIG. 9). The obtained sample was subjected to the same operation as in Test Example 3-2, and qPCR for genes EREG, ARG2, CCL2, IL1RN, PGF, SPP1, VEGFA, AREG and DPT was performed. GAPDH was used as a reference gene.

Compound | formation of epithelial tissue layer [1] | increase in mRNA expression level of genes EREG, ARG2, CCL2, IL1RN, PGF, SPP1, VEGFA, AREG and DPT [2]
OC[C@H]1O[C@@](CO)(O[C@H]2O[C@H](CO)[C@@H](O)[C@H](O)[C@H]2O)[C@@H](O)[C@@H]1O [sucrose, reference compound] | no epithelial tissue layer was formed | –
O=C(CO)[C@@H](O)[C@H](O)[C@H](O)CO [fructose, reference compound] | no epithelial tissue layer was formed | –
hyaluronic acid oligosaccharide 4mer [hyaluronic acid oligosaccharides, reference compound] | – | not observed
